Assay results reported in patent US9353082B2, “Pharmaceutical compounds” (BIAL—PORTELA & CA, S.A., priority 2008, dated 2016).

How the values were obtained:
FAAH [1] = molecular target: T1, FAAH (Rattus norvegicus, UniProt P97612); assay: In vitro FAAH activity in rat brain membranes, 3H-AEA substrate, % of control; type: biochemical, Wistar rats; settings: low value = strong inhibitor; for In Vitro FAAH activity, 100 nM: 100 nM test compound; for In Vitro FAAH activity, 10 uM: 10 uM test compound; for In Vitro 100 nM (FAAH activity, % of control): rat brain membranes, compound at 100 nM
T1 construct: Frozen brains (without cerebellum) from Wistar rats were used; from tissue; host or cells: Wistar rat brain (without cerebellum), washed membrane pellets
T1 sequence (P97612 1-579): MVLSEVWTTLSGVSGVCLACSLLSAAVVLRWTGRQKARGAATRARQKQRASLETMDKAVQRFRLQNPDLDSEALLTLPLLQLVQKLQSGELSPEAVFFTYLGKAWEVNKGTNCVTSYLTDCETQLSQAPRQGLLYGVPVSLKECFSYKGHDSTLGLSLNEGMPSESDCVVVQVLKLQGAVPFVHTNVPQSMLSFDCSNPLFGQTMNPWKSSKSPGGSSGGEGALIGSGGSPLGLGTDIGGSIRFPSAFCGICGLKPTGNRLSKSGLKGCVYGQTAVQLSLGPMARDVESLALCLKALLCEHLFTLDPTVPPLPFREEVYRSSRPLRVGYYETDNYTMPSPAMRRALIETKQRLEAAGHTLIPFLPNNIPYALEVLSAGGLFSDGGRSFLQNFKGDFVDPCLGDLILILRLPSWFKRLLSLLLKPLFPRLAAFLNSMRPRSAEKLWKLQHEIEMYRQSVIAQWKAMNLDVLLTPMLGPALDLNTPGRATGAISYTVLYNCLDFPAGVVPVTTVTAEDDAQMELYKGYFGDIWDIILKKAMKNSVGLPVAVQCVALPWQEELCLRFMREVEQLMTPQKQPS
How it was run: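 Wistar rat brain membranes (5 μg protein) preincubated 15 min at 37 °C with compound at 10 μM or 0.1 μM (0.1% DMSO), then 2 μM AEA including 3H-AEA with 0.1% BSA, Tris pH 7.6, 10 min. 3H-ethanolamine counted after charcoal stop; % of no-compound control after blank subtraction.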

FAAH [2] = molecular target: T2, FAAH (Mus musculus, UniProt O08914); assay: In vivo FAAH inhibition after oral dosing, remaining activity in brain homogenate (BRh, central nervous tissue); design: species or system NMRI mice; settings: brain homogenate; for In Vivo BRh 3 mg·kg 8 h (remaining FAAH activity, % of control): 8 h after dosing, low value = strong inhibitor
T2 construct: A fragment of liver, left lung lobe and brain without cerebellum were removed; from tissue; host or cells: male NMRI mice; brain (without cerebellum) and liver homogenates
T2 sequence (O08914 1-579): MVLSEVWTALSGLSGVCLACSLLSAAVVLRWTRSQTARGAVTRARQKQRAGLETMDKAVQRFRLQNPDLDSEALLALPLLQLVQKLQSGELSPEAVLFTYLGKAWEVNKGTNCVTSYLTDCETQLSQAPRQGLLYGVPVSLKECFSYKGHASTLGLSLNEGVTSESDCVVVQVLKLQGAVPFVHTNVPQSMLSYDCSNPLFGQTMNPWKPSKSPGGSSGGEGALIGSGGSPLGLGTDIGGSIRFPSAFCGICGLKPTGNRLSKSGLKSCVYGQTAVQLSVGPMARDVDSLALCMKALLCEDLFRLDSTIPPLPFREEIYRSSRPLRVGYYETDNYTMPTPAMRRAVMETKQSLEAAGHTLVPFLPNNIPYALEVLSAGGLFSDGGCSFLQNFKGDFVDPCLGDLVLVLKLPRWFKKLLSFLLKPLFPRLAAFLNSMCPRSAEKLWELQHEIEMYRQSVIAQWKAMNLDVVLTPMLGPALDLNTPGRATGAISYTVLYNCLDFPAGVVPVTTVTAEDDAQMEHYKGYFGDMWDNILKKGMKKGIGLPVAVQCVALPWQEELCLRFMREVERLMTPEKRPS
How it was run: (§1)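 Male NMRI mice, fasted overnight, got 30 or 3 mg/kg compound orally (0.5% CMC suspension or water) and were compared with vehicle controls. Brain (no cerebellum) and liver homogenates were incubated with 2 μM AEA plus 5 nM 3H-AEA at 37 °C, 10 min for brain and 7 min for liver. Remaining FAAH activity is % of vehicle after blank subtraction.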

FAAH [3] = molecular target: T2, FAAH; assay: In vivo FAAH inhibition after oral dosing, remaining activity in liver homogenate (LVh, peripheral tissue); design: species or system NMRI mice; settings: liver homogenate; for In Vivo LVh 3 mg·kg 8 h (remaining FAAH activity, % of control): 8 h after dosing, low value = strong inhibitor
How it was run: as §1

In Vitro FAAH activity, 100 nM (FAAH [1])	In Vivo BRh 3 mg/kg 8 h, remaining FAAH activity (FAAH [2])	In Vivo LVh 3 mg/kg 8 h, remaining FAAH activity (FAAH [3])	In Vitro FAAH activity, 10 uM (FAAH [1])	In Vivo BRh 30 mg/kg 1 h, remaining FAAH activity (FAAH [2])	In Vivo LVh 30 mg/kg 1 h, remaining FAAH activity (FAAH [3])	In Vitro 100 nM (FAAH activity, % of control) (FAAH [1])	In Vivo BRh 3 mg·kg 8 h (remaining FAAH activity, % of control) (FAAH [2])	In Vivo LVh 3 mg·kg 8 h (remaining FAAH activity, % of control) (FAAH [3])	SMILES
84.1 % of control	79.4 % of control	83.7 % of control							CCC1CN(C(=O)n2cnc(-c3ccc(Cl)cc3)c2)C(C)(C)O1 (stereo not drawn) [Compound 267, (4-(4-chlorophenyl)-1H-imidazol-1-yl)(5-ethyl-2,2-dimethyloxazolidin-3-yl)methanone]
22.4 % of control	99 % of control	39.5 % of control							COc1cccc(-c2cccc(-c3cn(C(=O)N(C)C4CCCCC4)cn3)c2)c1 [Compound 240, N-cyclohexyl-4-(3′-methoxybiphenyl-3-yl)-N-methyl-1H-imidazole-1-carboxamide]
						3.6 % of control	4 % of control	4.9 % of control	CN(C(=O)n1cnc(-c2ccc(O)c(F)c2)c1)C1CCCC1 [Compound 331, N-cyclopentyl-4-(3-fluoro-4-hydroxyphenyl)-N-methyl-1H-imidazole-1-carboxamide]
2.2 % of control				87.5 % of control	83.9 % of control				O=C(NCc1ccccc1)n1nnc2ccccc21 [Compound 61, N-benzyl-1H-benzo[d][1,2,3]triazole-1-carboxamide]
90.5 % of control	102.1 % of control	52.6 % of control							CC(C)N(Cc1ccccc1)C(=O)n1cnc(-c2ccccc2)c1 [Compound 250, N-benzyl-N-isopropyl-4-phenyl-1H-imidazole-1-carboxamide]
1.2 % of control	67.9 % of control	2.8 % of control							CN(C(=O)n1cnc(-c2cccc(-c3cccc(C(N)=O)c3)c2)c1)C1CCCCC1 [Compound 238, 4-(3′-carbamoylbiphenyl-3-yl)-N-cyclohexyl-N-methyl-1H-imidazole-1-carboxamide]
0.2 % of control	99.1 % of control	71.4 % of control							Cc1ccc(OC2CCN(C(=O)n3nnc4ccccc43)CC2)cc1 [Compound 99, (1H-benzo[d][1,2,3]triazol-1-yl)(4-(p-tolyloxy)piperidin-1-yl)methanone]
111.6 % of control	86.8 % of control	89 % of control	50.6 % of control						CC1(C)COCN1C(=O)n1cnc2ccccc21 [Compound 219, (1H-benzo[d]imidazol-1-yl)(4,4-dimethyloxazolidin-3-yl)methanone]
52.5 % of control			0 % of control	10.7 % of control	17.2 % of control				CN(C(=O)n1cnc(-c2ccc(F)cc2)c1)c1ccccc1 [Compound 29, 4-(4-fluorophenyl)-N-methyl-N-phenyl-1H-imidazole-1-carboxamide]
98.5 % of control	105.9 % of control	87.6 % of control							CC1(C)COCN1C(=O)n1cnc(-c2ccc(Cl)cc2)n1 [Compound 189, (3-(4-chlorophenyl)-1H-1,2,4-triazol-1-yl)(4,4-dimethyloxazolidin-3-yl)methanone]
55.1 % of control	124.4 % of control	103 % of control							NC(=O)c1ccc(Oc2ccc(-c3ncn(C(=O)N4CCOCC4)n3)cc2)cc1 [Compound 147, 4-(4-(1-(morpholine-4-carbonyl)-1H-1,2,4-triazol-3-yl)phenoxy)benzamide]
						65.1 % of control	3.4 % of control	2.6 % of control	CN(C(=O)n1cnc(-c2ccc(F)cc2)c1)C1CCCCC1 [Compound 273, N-cyclohexyl-4-(4-fluorophenyl)-N-methyl-1H-imidazole-1-carboxamide]
95.3 % of control	8.1 % of control	7.8 % of control	37.3 % of control						CC1(C)COCN1C(=O)n1cnc(-c2ccc(O)cc2)c1 [Compound 260, (4,4-dimethyloxazolidin-3-yl)(4-(4-hydroxyphenyl)-1H-imidazol-1-yl)methanone]
0.6 % of control	90.6 % of control	111 % of control							O=C(N1CCN(c2ccccc2)CC1)n1cnc(Cc2ccccc2)n1 [Compound 182, (3-benzyl-1H-1,2,4-triazol-1-yl)(4-phenylpiperazin-1-yl)methanone]
92.1 % of control	98.1 % of control	98.8 % of control							Cc1c(-c2ccccc2)ncn1C(=O)N1COCC1(C)C [Compound 263, (4,4-dimethyloxazolidin-3-yl)(5-methyl-4-phenyl-1H-imidazol-1-yl)methanone]
						93.9 % of control	111.9 % of control	10.4 % of control	CN(C(=O)n1cnc(-c2ccc(O)c(N)c2)c1)C1CCCCC1.Cl [Compound no. 357, 4-(3-amino-4-hydroxyphenyl)-N-cyclohexyl-N-methyl-1H-imidazole-1-carboxamide hydrochloride]
						87.3 % of control	91.6 % of control	94.1 % of control	Cc1nc(-c2ccccc2)cn1C(=O)N(C)C1CCCCC1 [Compound 279, N-cyclohexyl-N,2-dimethyl-4-phenyl-1H-imidazole-1-carboxamide]

SMILES	In Vitro FAAH activity, 100 nM (FAAH [1])	In Vivo BRh 3 mg/kg 8 h, remaining FAAH activity (FAAH [2])	In Vivo LVh 3 mg/kg 8 h, remaining FAAH activity (FAAH [3])	In Vitro FAAH activity, 10 uM (FAAH [1])	In Vivo BRh 30 mg/kg 1 h, remaining FAAH activity (FAAH [2])	In Vivo LVh 30 mg/kg 1 h, remaining FAAH activity (FAAH [3])	In Vitro 100 nM (FAAH activity, % of control) (FAAH [1])	In Vivo BRh 3 mg·kg 8 h (remaining FAAH activity, % of control) (FAAH [2])	In Vivo LVh 3 mg·kg 8 h (remaining FAAH activity, % of control) (FAAH [3])
CC1(C)COCN1C(=O)n1nnc2ccccc21 [Compound 71, (1H-benzo[d][1,2,3]triazol-1-yl)(4,4-dimethyloxazolidin-3-yl)methanone]	2.3 % of control	1.8 % of control	2.5 % of control	0.1 % of control	0.3 % of control	2.2 % of control			
CN(C(=O)n1cnc(-c2ccccc2)c1)C1CCN(Cc2ccccc2)CC1 [Compound 282, N-(1-benzylpiperidin-4-yl)-N-methyl-4-phenyl-1H-imidazole-1-carboxamide]							40.9 % of control	0.5 % of control	1.6 % of control
